Measured values as given in patent US8580794B2 (AbbVie Inc., priority 2009, dated 2013).

target: GST-Bc1-2 (Homo sapiens, UniProt P10415); assay: Time Resolved-Fluorescence Resonance Energy Transfer (TR-FRET) Bcl-2 binding assay with F-Bak peptide probe; settings: GST-Bcl-2 1 nM, F-Bak probe 100 nM, Tb-anti-GST 1 nM; '<' = below limit of detection; read-out: TR-FRET Bcl-2 Binding Ki
Sequence (P10415 whole entry): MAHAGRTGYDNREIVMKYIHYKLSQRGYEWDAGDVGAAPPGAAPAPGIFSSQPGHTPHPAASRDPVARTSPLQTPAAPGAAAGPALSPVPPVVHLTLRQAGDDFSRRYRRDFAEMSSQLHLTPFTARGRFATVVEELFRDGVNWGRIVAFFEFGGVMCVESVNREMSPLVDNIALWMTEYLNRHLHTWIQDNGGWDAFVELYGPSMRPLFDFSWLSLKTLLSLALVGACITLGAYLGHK

| SMILES | Ki |
| --- | --- |
| CC1(C)CCC(CN2CCN(c3ccc(C(=O)NS(=O)(=O)c4ccc5ccccc5c4)c(Oc4cnc5[nH]ccc5c4)c3)CC2)=C(c2ccc(Cl)cc2)C1 [Example 14, 4-(4-{[2-(4-chlorophenyl)-4,4-dimethylcyclohex-1-en-1-yl]methyl}piperazin-1-yl)-N-(2-naphthylsulfonyl)-2-(1H-pyrrolo[2,3-b]pyridin-5-yloxy)benzamide] | 2.8 nM |
| CC1(C)CCC(CN2CCN(c3ccc(C(=O)NS(=O)(=O)c4ccc(NC[C@@H]5CN(C6CC6)CCO5)c([N+](=O)[O-])c4)c(Oc4cnc5[nH]ccc5c4)c3)CC2)=C(c2ccc(Cl)cc2)C1 [Example 326, 4-(4-{[2-(4-chlorophenyl)-4,4-dimethylcyclohex-1-en-1-yl]methyl}piperazin-1-yl)-N-{[4-({[(2R)-4-cyclopropylmorpholin-2-yl]methyl}amino)-3-nitrophenyl]sulfonyl}-2-(1H-pyrrolo[2,3-b]pyridin-5-yloxy)benzamide] | < 0.01 nM |
| CC1(C)CCC(CN2CCN(c3ccc(C(=O)NS(=O)(=O)c4ccc(NCC5CN(C(CF)CF)C5)c([N+](=O)[O-])c4)c(Oc4cnc5[nH]ccc5c4)c3)CC2)=C(c2ccc(Cl)cc2)C1 [Example 161, 4-(4-{[2-(4-chlorophenyl)-4,4-dimethylcyclohex-1-en-1-yl]methyl}piperazin-1-yl)-N-({4-[({1-[2-fluoro-1-(fluoromethyl)ethyl]azetidin-3-yl}methyl)amino]-3-nitrophenyl}sulfonyl)-2-(1H-pyrrolo[2,3-b]pyridin-5-yloxy)benzamide] | < 0.01 nM |
| CC1(C)CCC(CN2CCN(c3ccc(C(=O)NS(=O)(=O)c4cnc(OCC5(F)CCN(C(CF)CF)CC5)c(Cl)c4)c(Oc4cnc5[nH]ccc5c4)c3)CC2)=C(c2ccc(Cl)cc2)C1 [Example 282, N-[(5-chloro-6-{[1-(1,3-difluoropropan-2-yl)-4-fluoropiperidin-4-yl]methoxy}pyridin-3-yl)sulfonyl]-4-(4-{[2-(4-chlorophenyl)-4,4-dimethylcyclohex-1-en-1-yl]methyl}piperazin-1-yl)-2-(1H-pyrrolo[2,3-b]pyridin-5-yloxy)benzamide] | < 0.01 nM |
| CC1(C)CCC(CN2CCN(c3ccc(C(=O)NS(=O)(=O)c4ccc(NCC5COCCN5C5CCC5)c([N+](=O)[O-])c4)c(Oc4cnc5[nH]ccc5c4)c3)CC2)=C(c2ccc(Cl)cc2)C1 (stereo not shown) [Example 170, 4-(4-{[2-(4-chlorophenyl)-4,4-dimethylcyclohex-1-en-1-yl]methyl}piperazin-1-yl)-N-[(4-{[(4-cyclobutylmorpholin-3-yl)methyl]amino}-3-nitrophenyl)sulfonyl]-2-(1H-pyrrolo[2,3-b]pyridin-5-yloxy)benzamide] | 0.022 nM |
| COCCOc1ncc(S(=O)(=O)NC(=O)c2ccc(N3CCN(CC4=C(c5ccc(Cl)cc5)CC(C)(C)CC4)CC3)cc2Oc2cnc3[nH]ccc3c2)cc1Cl [Example 292, N-{[5-chloro-6-(2-methoxyethoxy)pyridin-3-yl]sulfonyl}-4-(4-{[2-(4-chlorophenyl)-4,4-dimethylcyclohex-1-en-1-yl]methyl}piperazin-1-yl)-2-(1H-pyrrolo[2,3-b]pyridin-5-yloxy)benzamide] | 0.19 nM |
| CC1(C)CCC(CN2CCN(c3ccc(C(=O)NS(=O)(=O)c4ccc(OCC5CCOCC5)c(C(N)=O)c4)c(Oc4cnc5[nH]ccc5c4)c3)CC2)=C(c2ccc(Cl)cc2)C1 [Example 38, N-{[3-(aminocarbonyl)-4-(tetrahydro-2H-pyran-4-ylmethoxy)phenyl]sulfonyl}-4-(4-{[2-(4-chlorophenyl)-4,4-dimethylcyclohex-1-en-1-yl]methyl}piperazin-1-yl)-2-(1H-pyrrolo[2,3-b]pyridin-5-yloxy)benzamide] | 0.3 nM |
| CC1(C)CCC(CC2CCN(c3ccc(C(=O)NS(=O)(=O)c4ccc(NCC5CCOCC5)c([N+](=O)[O-])c4)c(Oc4cnc5[nH]ccc5c4)c3)CC2)C(c2ccc(Cl)cc2)C1 (stereo not shown) [Example 296, 4-(4-{[2-(4-chlorophenyl)-4,4-dimethylcyclohexyl]methyl}piperidin-1-yl)-N-({3-nitro-4-[(tetrahydro-2H-pyran-4-ylmethyl)amino]phenyl}sulfonyl)-2-(1H-pyrrolo[2,3-b]pyridin-5-yloxy)benzamide] | 0.512 nM |
| CC1(C)CCC(CN2CCN(c3ccc(C(=O)NS(=O)(=O)c4ccc(NC[C@H]5CC[C@@H](O)C5)c([N+](=O)[O-])c4)c(Oc4cnc5[nH]ccc5c4)c3)CC2)=C(c2ccc(Cl)cc2)C1 [Example 158, 4-(4-{[2-(4-chlorophenyl)-4,4-dimethylcyclohex-1-en-1-yl]methyl}piperazin-1-yl)-N-{[4-({[(1S,3R)-3-hydroxycyclopentyl]methyl}amino)-3-nitrophenyl]sulfonyl}-2-(1H-pyrrolo[2,3-b]pyridin-5-yloxy)benzamide] | < 0.01 nM |
| CC1(C)CCC(CN2CCN(c3ccc(C(=O)NS(=O)(=O)c4ccc(OC[C@@H]5CC(F)(F)CN5C5COC5)c([N+](=O)[O-])c4)c(Oc4cnc5[nH]ccc5c4)c3)CC2)=C(c2ccc(Cl)cc2)C1 [Example 168, 4-(4-{[2-(4-chlorophenyl)-4,4-dimethylcyclohex-1-en-1-yl]methyl}piperazin-1-yl)-N-[(4-{[(2S)-4,4-difluoro-1-oxetan-3-ylpyrrolidin-2-yl]methoxy}-3-nitrophenyl)sulfonyl]-2-(1H-pyrrolo[2,3-b]pyridin-5-yloxy)benzamide] | < 0.01 nM |
| CC1(C)CCC(c2ccc(Cl)cc2)=C(CN2CCN(c3ccc(C(=O)NS(=O)(=O)c4ccc(NCC5CCOCC5)c([N+](=O)[O-])c4)c(Oc4cnc5[nH]ccc5c4)c3)CC2)C1 [Example 75, 4-(4-{[2-(4-chlorophenyl)-5,5-dimethylcyclohex-1-en-1-yl]methyl}piperazin-1-yl)-N-({3-nitro-4-[(tetrahydro-2H-pyran-4-ylmethyl)amino]phenyl}sulfonyl)-2-(1H-pyrrolo[2,3-b]pyridin-5-yloxy)benzamide] | < 0.01 nM |
| CC1(C)CCC(CN2CCN(c3ccc(C(=O)NS(=O)(=O)c4cnc(NCC5CCOCC5)c(C#N)c4)c(Oc4cnc5[nH]ccc5c4)c3)CC2)=C(c2ccc(Cl)cc2)C1 [Example 106, 4-(4-{[2-(4-chlorophenyl)-4,4-dimethylcyclohex-1-en-1-yl]methyl}piperazin-1-yl)-N-({5-cyano-6-[(tetrahydro-2H-pyran-4-ylmethyl)amino]pyridin-3-yl}sulfonyl)-2-(1H-pyrrolo[2,3-b]pyridin-5-yloxy)benzamide] | 0.895 nM |
| CC1(C)CCC(CN2CCN(c3ccc(C(=O)NS(=O)(=O)c4ccc(NCC5CN(C6COC6)CCO5)c(S(=O)(=O)C(F)(F)F)c4)c(Oc4cnc5[nH]ccc5c4)c3)CC2)=C(c2ccc(Cl)cc2)C1 (stereo not shown) [Example 241, 4-(4-{[2-(4-chlorophenyl)-4,4-dimethylcyclohex-1-en-1-yl]methyl}piperazin-1-yl)-N-({4-({[4-(oxetan-3-yl)morpholin-2-yl]methyl}amino)-3-[(trifluoromethyl)sulfonyl]phenyl}sulfonyl)-2-(1H-pyrrolo[2,3-b]pyridin-5-yloxy)benzamide] | < 0.01 nM |
| CC1(C)CCC(CN2CCN(c3ccc(C(=O)NS(=O)(=O)c4cnc(O[C@@H]5CCN(CC(F)F)C5)c(Cl)c4)c(Oc4cnc5[nH]ccc5c4)c3)CC2)=C(c2ccc(Cl)cc2)C1 [Example 261, N-[(5-chloro-6-{[(3R)-1-(2,2-difluoroethyl)pyrrolidin-3-yl]oxy}pyridin-3-yl)sulfonyl]-4-(4-{[2-(4-chlorophenyl)-4,4-dimethylcyclohex-1-en-1-yl]methyl}piperazin-1-yl)-2-(1H-pyrrolo[2,3-b]pyridin-5-yloxy)benzamide] | 0.134 nM |
| CC1(C)CCC(CN2CCN(c3ccc(C(=O)NS(=O)(=O)c4ccc(OCC5(C)CCOCC5)c([N+](=O)[O-])c4)c(Oc4cnc5[nH]ccc5c4)c3)CC2)=C(c2ccc(Cl)cc2)C1 [Example 221, 4-(4-{[2-(4-chlorophenyl)-4,4-dimethylcyclohex-1-en-1-yl]methyl}piperazin-1-yl)-N-({4-[(4-methyltetrahydro-2H-pyran-4-yl)methoxy]-3-nitrophenyl}sulfonyl)-2-(1H-pyrrolo[2,3-b]pyridin-5-yloxy)benzamide] | 0.049 nM |
| CC1(C)CC(c2ccc(Cl)cc2)=C(CN2CCN(c3ccc(C(=O)NS(=O)(=O)c4ccc(OCC5COCCO5)c([N+](=O)[O-])c4)c(Oc4cnc5[nH]ccc5c4)c3)CC2)CO1 (stereo not shown) [Example 32, 4-(4-{[4-(4-chlorophenyl)-6,6-dimethyl-5,6-dihydro-2H-pyran-3-yl]methyl}piperazin-1-yl)-N-{[4-(1,4-dioxan-2-ylmethoxy)-3-nitrophenyl]sulfonyl}-2-(1H-pyrrolo[2,3-b]pyridin-5-yloxy)benzamide] | < 0.01 nM |
| CC1(C)CCC(CN2CCN(c3ccc(C(=O)NS(=O)(=O)c4ccc(NCC5(N)CCOCC5)c([N+](=O)[O-])c4)c(Oc4cnc5[nH]ccc5c4)c3)CC2)=C(c2ccc(Cl)cc2)C1 [Example 108, N-[(4-{[(4-aminotetrahydro-2H-pyran-4-yl)methyl]amino}-3-nitrophenyl)sulfonyl]-4-(4-{[2-(4-chlorophenyl)-4,4-dimethylcyclohex-1-en-1-yl]methyl}piperazin-1-yl)-2-(1H-pyrrolo[2,3-b]pyridin-5-yloxy)benzamide] | < 0.01 nM |
| CC1(C)CCC(CN2CCN(c3ccc(C(=O)NS(=O)(=O)c4ccc(NC5CCN(C6CC6)CC5)c([N+](=O)[O-])c4)c(Oc4cnc5[nH]ccc5c4)c3)CC2)=C(c2ccc(Cl)cc2)C1 [Example 98, 4-(4-{[2-(4-chlorophenyl)-4,4-dimethylcyclohex-1-en-1-yl]methyl}piperazin-1-yl)-N-({4-[(1-cyclopropylpiperidin-4-yl)amino]-3-nitrophenyl}sulfonyl)-2-(1H-pyrrolo[2,3-b]pyridin-5-yloxy)benzamide] | < 0.01 nM |
| CC1(C)CCC(CN2CCN(c3ccc(C(=O)NS(=O)(=O)c4ccc(NCC5CCCN(S(C)(=O)=O)C5)c([N+](=O)[O-])c4)c(Oc4cnc5[nH]ccc5c4)c3)CC2)=C(c2ccc(Cl)cc2)C1 (stereo not shown) [Example 147, 4-(4-{[2-(4-chlorophenyl)-4,4-dimethylcyclohex-1-en-1-yl]methyl}piperazin-1-yl)-N-{[4-({[1-(methylsulfonyl)piperidin-3-yl]methyl}amino)-3-nitrophenyl]sulfonyl}-2-(1H-pyrrolo[2,3-b]pyridin-5-yloxy)benzamide] | < 0.01 nM |
